Results from patent publication US20090069271A1, “WOOD TREATMENT” (priority 2005, published 2009).
Read-outs that look alike come from different tables or passages of the source.

How the values were obtained:
[1] = aqueous dioxane, tri-(dicyclohexylcarbinyl) borate = 1, cited from earlier work
[2] = base catalysed hydrolysis, 60% aqueous dioxane at 21°; cited from earlier work
[3] = Pseudo three-dimensional hydrolysis test, sample layered on distilled water; type: physicochemical; details: sample layered on distilled water in a test tube; 20 mls sample layered on 10 mls distilled water in 19 mm test tube
Protocol: A pseudo three-dimensional test was made by taking 10 mls of distilled water and placing in a 19 mm diameter test tube. 20 mls of sample was then layered on the water; the rate of hydrolysis was then measured. This was done by taking 2 ml samples from the test tube over time, refluxing and titrating the 2 ml samples to get the concentration. The test was with n-butyl di-n-propyl borate, which should have similar kinetic properties to tri-n-propyl borate and tri-n-butyl borate. The test was also done with tri-n-octyl borate.
It can be seen that there is an exponential difference in the half-life when changing the conditions of hydrolysis. For the commercial method of which the patent covers, the hydrolysis rate is slow enough to give consistent uptake of product in the timber and provide stable solution concentration.

Row | Compound | Relative rate of hydrolysis [1] | also measured
1 | c1ccc([C@H]2CCCC[C@H]2OB(O[C@@H]2CCCC[C@@H]2c2ccccc2)O[C@@H]2CCCC[C@@H]2c2ccccc2)cc1 (relative stereo) [Tri-(cis-2-phenylcyclohexyl) borate] | 28.2 | –
2 | c1ccc([C@@H]2CCCC[C@H]2OB(O[C@@H]2CCCC[C@H]2c2ccccc2)O[C@@H]2CCCC[C@H]2c2ccccc2)cc1 (relative stereo) [Tri-(trans-2-phenylcylohexyl) borate] | 40.0 | –
3 | CCCCCCC(C)OB(OC(C)CCCCCC)OC(C)CCCCCC (centres unmarked) [Tri-2-octyl borate] | 4.33 × 10^3 | –
4 | CCCCC(CC)OB(OC(CC)CCCC)OC(CC)CCCC (centres unmarked) [Tri-3-heptyl borate] | 415 | –
5 | CCC(CC)OB(OC(CC)CC)OC(CC)CC [Tri-3-pentyl borate] | 483 | –
6 | C#CC1(OB(OC2(C#C)CCCCC2)OC2(C#C)CCCCC2)CCCCC1 [Tri-(1-ethynylcyclohexyl) borate] | 4.29 × 10^4 | –
7 | CC(C)CC(C)CC(CC(C)C)OB(OC(CC(C)C)CC(C)CC(C)C)OC(CC(C)C)CC(C)CC(C)C (centres unmarked) [Tri-(2,6,8-trimethyl-4-nonyl) borate] | 4.83 | –
8 | C1CCC(OB(OC2CCCCC2)OC2CCCCC2)CC1 [Tri-(2-cyclohexyl) borate] | 3.67 | –
9 | CCCCC(CC)COB(OCC(CC)CCCC)OCC(CC)CCCC (centres unmarked) [Tri-(2-ethylhexyl) borate] | 2.77 × 10^3 | –
10 | c1ccc(C2CCCCC2OB(OC2CCCCC2c2ccccc2)OC2CCCCC2c2ccccc2)cc1 (centres unmarked) [Tri-(2-phenylcyclohexyl) borate] | 34.1 | –
11 | C1CCC(C(OB(OC(C2CCCCC2)C2CCCCC2)OC(C2CCCCC2)C2CCCCC2)C2CCCCC2)CC1 [Tri-(dicyclohexylcarbinyl) borate] | 1 | –
12 | CC(C)CC(CC(C)C)OB(OC(CC(C)C)CC(C)C)OC(CC(C)C)CC(C)C [Tri-(diisobutylcarbinyl) borate] | 5.86 | –
13 | CC(C)CC(C)OB(OC(C)CC(C)C)OC(C)CC(C)C (centres unmarked) [Tri-(methylisobutylcarbinyl) borate] | 2430 | –
14 | CCCC1OB(OCC(CC)C(CCC)OB2OCC(CC)C(CCC)O2)OCC1CC (centres unmarked) [Tri-(octylene glycol) biborate] | 3.92 × 10^5 | –
15 | CCCCCCOB(OCCCCCC)OCCCCCC [Tri-hexyl borate] | 2.02 × 10^5 | Half-life [2]: 2.9 s
16 | CCCCCOB(OCCCCC)OCCCCC [Tri-n-amyl borate] | 5.87 × 10^5 | Half-life [2]: 1.0 s
17 | CCCCOB(OCCCC)OCCCC [Tri-n-butyl borate] | – | Half-life [3]: 89 h; Half-life(sec.) [2]: Too fast to measure
18 | CCCCCCCCCCCCOB(OCCCCCCCCCCCC)OCCCCCCCCCCCC [Tri-n-dodecyl borate] | 2.77 × 10^4 | Half-life [2]: 21.3 s; Relative rate of hydrolysis ([1]; listed as Tri-dodecyl borate): 2.77×10^4
19 | CCCCCCCCOB(OCCCCCCCC)OCCCCCCCC [Tri-n-octyl borate] | 3.67 × 10^4 | Half-life [2]: 16.0 s
20 | CCCOB(OCCC)OCCC [Tri-n-propyl borate] | – | Half-life(sec.) [2]: Too fast to measure
21 | CCC(C)OB(OC(C)CC)OC(C)CC (centres unmarked) [Tri-s-butyl borate] | 1.68 × 10^5 | –
22 | CCC(C)(C)OB(OC(C)(C)CC)OC(C)(C)CC [Tri-t-amyl borate] | 449 | –
23 | CC(C)(C)OB(OC(C)(C)C)OC(C)(C)C [Tri-t-butyl borate] | 1370 | –
24 | CCOB(OCC)OCC [Triethyl borate] | – | Half-life(sec.) [2]: Too fast to measure
25 | COB(OC)OC [Trimethyl borate] | – | Half-life(sec.) [2]: Too fast to measure
26 | CCCCCCCC/C=C\CCCCCCCCOB(OCCCCCCCC/C=C\CCCCCCCC)OCCCCCCCC/C=C\CCCCCCCC [Trioleyl borate] | 3.57 × 10^4 | –
27 | CCCCCCCCCCCCCCCCCCOB(OCCCCCCCCCCCCCCCCCC)OCCCCCCCCCCCCCCCCCC [Tristearyl borate] | 2.71 × 10^4 | Half-life [2]: 21.7 s
28 | CCCCOB(OCCC)OCCC [n-butyl di-n-propyl borate] | – | Half-life [3]: 6.5 h
